{"source": "patent US10232043B2", "about": "“Photoactivated molecules for light-induced modulation of the activity of electrically excitable cells and methods of using the same” (UNIVERSITY OF SOUTHERN CALIFORNIA, priority 2015, dated 2019)", "key": {"[1]": {"test_system": "mouse adrenal chromaffin cells", "experiment": "Perforated patch clamp, light-triggered action potentials", "type": "cell-based", "method": "Action potentials in chromaffin cells were monitored using perforated patch clamp electrophysiology in current-clamp mode, using an EPC10 amplifier and Pulsemaster data acquisition software (HEKA electronics). A coverslip containing mouse chromaffin cells was transferred to a recording chamber and perfused with extracellular solution. Extracellular solution consists of 140 mM NaCl, 2.8 mM KCl, 10 mM HEPES, 1 mM MgCl2, 2 mM CaCl2, 10 mM glucose, pH adjusted to 7.3, and osmolarity adjusted to 290-300 mOsm. Intracellular solution consisted of 145 mM KCl, 10 mM NaCl, 1 mM MgCl2, and 10 mM HEPES, pH adjusted to 7.3 and osmolarity adjusted to 290-300 mOsm. Perforation solution was prepared by adding 4.5 μl of 125 mg/ml stock of amphoterecin B (Sigma) in DMSO to 1.8 mls of intracellular solution, and homogenizing for 540 s. Perforation was achieved within 3-10 min following gigaseal formation. Series resistances were in the range of 8-22 Mohm. Light stimulation in the blue spectrum originated from a xenon lamp source with an irradiance value of 0.480 mE s^−1 m^−2 through a 470/40 nm bandpass excitation filter. The duration of illumination varied and is indicated by bars on figures.\nThe behavior of excitable cells (cells capable of firing action potentials) treated with RubpyC17 was next investigated. Perforated patch clamp recording was performed on, mouse adrenal chromaffin cells pretreated with 450-900 nM RubpyC17 for 15-30 minutes before beginning electrophysiological recordings."}, "mouse chromaffin cells": {"test_system": "mouse chromaffin cells", "experiment": "Carbon-fiber amperometry, light-triggered secretion", "type": "cell-based", "method": "Carbon fiber electrodes were prepared using established methodology and coupled to an EPC10 amplifier. A +800 mV constant voltage was applied to the electrode relative to the Ag/AgCl bath electrode. The amperometry recordings were sampled at 4 kHz using Pulsemaster (HEKA). Extracellular composition consisted of 120 mM NaCl, 20 mM KCl, 10 mM HEPES, 1 mM MgCl2, 2 mM CaCl2, 10 mM glucose, pH adjusted to 7.2-7.4, and osmolarity adjusted to 290-300. Light stimulation in the blue spectrum originated from a xenon lamp source through a 470/40 nm bandpass excitation filter. The duration of illumination varied and is indicated by bars on figures.\nAction potential firing triggers secretion of norepinephrine and epinephrine from adrenal chromaffin cells, which can be readily detected by the technique of carbon-fiber amperometry, thus serving as a surrogate to detect action potential firing. […] Out of 18 RubpyC17-loaded cells tested, 15 cells (83%) experienced increased secretion by at least 100-fold during light illumination. Unlike the changes in light-induced depolarization, light-induced changes in secretion appeared to be more transient One possible explanation for this is that at any moment in time, there are only a small number of release-competent vesicles—the so-called readily releasable pool of vesicles and maintained stimulation causes rapid depletion of the readily releasable pool of vesicles in the initial phase of stimulation."}, "[2]": {"test_system": "endogenous ion channels of chromaffin cells", "experiment": "Voltage-clamp current-voltage relationship and steady-state activation", "type": "cell-based, mouse", "settings": "before and during light illumination", "source_text": "FIGS. 21A-21H depict data from various experiments related to characteristics of RubpyC17-loaded cells. […] Inset images shown to the right of trace confirmed proper integration of RubpyC17 in patched cells. FIGS. 21C-21E show the light-induced action potential firing in chromaffin cells was not due to biophysical changes in voltage-gated ion channels as there were no significant changes in current-voltage relationships (21C-21D) nor in steady-state activation curve (21E) in RubpyC17-loaded chromaffin cells before (open circle) or during (open circle) light illumination. […] Peak inward currents from each stimulation jump were plotted against corresponding stimulating voltages (n=6). […] Data from representative cell is shown (n=5). […] Currents resulting from capacitor-like behavior of chromaffin cell membranes during hyperpolarizing jumps to −85 mV from a resting membrane potential of −80 mV were recorded 5 min following giga-seal formation for amphoterecin B (bottom trace) or 10 min following giga-seal formation for RubpyC17 (top trace).\nTo examine whether light-activated RubpyC17 can directly interact and open or block endogenous ion channels, HEK293T cells were preincubated with RubpyC17, and patch-clamped in a voltage-clamp configuration. […]"}, "RCS rats": {"test_system": "RCS rats", "experiment": "Extracellular recording from superior colliculus after intravitreal injection", "type": "in vivo, rat", "source_text": "FIGS. 27C-27F depict data related to administration of Rubpy-C17. White light was used for illumination in panels A, C, and D, while blue light (450 nm) was used in panels B, E, and F.\nThis finding was reproduced in 3 of 3 RCS rats injected with Rubpy-C17, and in 2 of 2 control (sham injection) RCS rats."}}, "note": "Entries after “also recorded” stand apart in the source; their conditions may differ."}
{"smiles": "CCCCCCCCCCCCCCCCCc1ccnc(-c2cc(C)ccn2)c1.F[P-](F)(F)(F)(F)F.F[P-](F)(F)(F)(F)F.[Ru+2].c1ccc(-c2ccccn2)nc1.c1ccc(-c2ccccn2)nc1", "note": "[RubpyC17, [Ru(bpy)2(bpy-C17)](PF6)2]", "values": [{"measurement": "light effect on action potential firing", "setting": "[1]; 900 nM RubpyC17 pretreatment, 5 mM ascorbate", "result": "triggered action potentials or increased the rate of action potential firing"}, {"measurement": "action potential firing rate of a single cell", "setting": "[1]; 2 μM for 1.5 min, ascorbate changed for ferricyanide", "result": "light-induced increase and then light-induced decrease"}, {"measurement": "reversal of firing effect after light illumination terminated", "setting": "[1]; chromaffin cells", "result": "slow, gradual reversal; also recorded: slowly reversed"}, {"measurement": "shape of action potential waveforms under light", "setting": "[1]; chromaffin cells", "result": "no change in the shape of action potential waveforms"}, {"measurement": "light effect on rate of action potential firing", "setting": "[1]; ferricyanide 100 μM", "result": "decreased the rate of action potential firing"}, {"measurement": "effect of increasing ferricyanide on action potential firing", "setting": "[1]; ferricyanide from 100 to 200 μM", "result": "further suppressed action potential firing"}, {"measurement": "amperometric current spikes (vesicular secretion) under light", "setting": "mouse chromaffin cells; 2 μM RubpyC17, 488 nm", "result": "exhibited numerous amperometric current spikes"}, {"measurement": "cells with increased secretion during light illumination", "setting": "mouse chromaffin cells; 15 of 18 RubpyC17-loaded cells", "result": 83, "unit": "%"}, {"measurement": "increase of secretion during light illumination", "setting": "mouse chromaffin cells; responding cells", "result": "at least 100 fold"}, {"measurement": "biophysical properties of endogenous ion channels", "setting": "[2]", "result": "does not alter the biophysical properties of endogenous ion channels"}, {"measurement": "rats in which the finding was reproduced", "setting": "RCS rats; RCS rats injected with Rubpy-C17", "result": "3 of 3"}, {"measurement": "time after injection with light-induced SC electrical responses", "setting": "RCS rats; eye injection, RCS rats", "result": "up to 3 days"}, {"measurement": "light-elicited electrical activity in superior colliculus field recording", "setting": "RCS rats; intravitreal, final concentration 100 μM, 30 minutes later, blind RCS rats", "result": "elicited reproducible and stereotypical electrical activity"}]}
